Laboratory results taken from US7534766B2, “Glucuronide metabolites and epimers thereof of tigecycline” (Wyeth, priority 2004, dated 2009).
Like-named read-outs stand apart in the source and are kept apart here.

What was measured:
[1] = male, human, in vivo
Experimental: (§1) An open-label, inpatient, multiple-dose tigecycline, single-dose [^14C]tigecycline metabolic disposition and mass balance study was performed in six healthy male volunteers. The clinical protocol called for twelve subjects. Of these twelve, six received the radioactive dose (subjects 1, 4, 5, 6, 7, and 8 with subject 8 later dropping out of the study.) Eligible subjects were selected based on inclusion/exclusion criteria, medical history, physical examination and additional procedures outlined in the study protocol. Each subject received a 100 mg loading dose on the morning of Day 1, followed by a 50 mg maintenance dose every 12 hours for an additional 5 doses. On the morning of study Day 4, six subjects received a single 50 mg dose of [^14C]tigecycline (50 μCi). Each tigecycline dose was administered via a 30-minute intravenous infusion.
(§2) Serum samples were collected for metabolite profiling prior to tigecycline dosing and 1, 4, 8, 24 and 48 hours following the [^14C]-labeled dose. For metabolite profiling, urine samples were collected at 0-4, 4-8, 8-24 and 24-48 hours and fecal samples were collected up to 48 hours following the [^14C]-labeled dose. Serum and urine samples, and fecal homogenates were shipped on dry ice to the Biotransformation Division of Drug Safety and Metabolism, Wyeth Research, Collegeville, Pa. The details of the sample collection and sample storage are described in the mass balance portion of the study. The 24-48 hour urine and fecal samples for subject #6 were incomplete since the subject withdrew from the study. While samples from this subject were used for metabolite profiling, the samples were not included in the mass balance calculations.
Individual fecal sample homogenates, prepared from each fecal sample collected up to 48 hours following the [^14C]-labeled tigecycline dose, that contained greater than 8000 dpm/g were analyzed for metabolite profiles. The preparation of the fecal sample homogenates is described in detail in the mass balance portion of the study. Briefly, fecal samples were homogenized with 3 to 4 volumes of ice-cold water by weight at ABC Laboratories (Columbia, Mo.) and shipped frozen to the Biotransformation Division of Drug Safety and Metabolism, Wyeth Research, Collegeville, Pa. For the extraction of radioactivity, fecal homogenates were thawed on ice and aliquots (approximately 1 g) transferred to 15 mL tubes. Three volumes of acetone were added and the samples mixed for 1 minute using a multi-tube vortex mixer. Samples were centrifuged for 15 minutes at 2500 rpm and 4° C. in a Sorvall Super T21 centrifuge. The supernatant was transferred to a fresh tube and the pellet re-suspended with 1 mL of water and 80 μL of 0.5 M EDTA, and re-extracted as described above. The pellet was re-extracted in this manner a total of three times and the supernatants pooled. The supernatant was evaporated to dryness under a stream of nitrogen using a Turbovap Model LV. The residue was re-suspended in 500 μL of water and centrifuged for 10 minutes at 14,000 rpm and room temperature using a Model 5415C Eppendorf centrifuge. The supernatant was transferred to an HPLC vial, assayed for radioactivity and for metabolite profiles using HPLC with radioactivity detection. Selected samples were also analyzed by LC/MS.
(§3) HPLC analyses were performed using a Waters 2695 Alliance Separation Module (Waters Corp., Milford, Mass.), a Waters Model 2487 dual wavelength UV absorbance detector, set to monitor 350 nm, and was in-line with a Gilson 215 liquid handler (Gilson, Middleton, Wis.) equipped to collect fractions at 20 second intervals.

[2] = Tigecycline metabolites identified in CD-1 mouse serum and urine and rabbit serum samples (LC/MS); assay type: in vivo
Experimental: The column temperature was 25° C. The flow rate was 0.2 mL/min. […] Gradient 1 was used for metabolite identification (qualitative analysis).
LC/MS analysis was conducted on extracts of serum and from CD-1 mice and rabbits, and on urine from CD-1 mice. The mass spectral data for tigecycline and its metabolites are discussed below.

[3] = LC/MS detection of tigecycline and its metabolites in humans, dogs and/or rats; settings: LC/MS of human serum, urine, feces and rat and dog plasma and urine
Experimental: Characterization of the tigecycline metabolites in human serum, urine and feces, and rat and dog plasma and urine was performed using LC/MS analysis (Table 5).

[4] = in vivo
Experimental: as §1, §2
Individual serum samples, collected 1, 4 and 8 hours following the [^14C]-labeled tigecycline dose, were analyzed for metabolite profiles. […] In order to minimize the sample volume, each serum sample was divided into two samples of equal volume (approximately 9 Ml each) and extracted and analyzed separately. […] The residue was reconstituted in 300 μL of acetonitrile/water (1:9), centrifuged for 10 minutes at 14,000 rpm and room temperature using a Model 5415C Eppendorf centrifuge (Brinkmann Instruments, Westbury, N.Y.) and assayed for radioactivity and by HPLC. Selected samples were also analyzed by LC/MS.
as §3, with “intervals. Fractions were collected into 96-well deep well Luma plates and analyzed using TopCount NXT. […]” for “intervals.”

Row | percent of the fecal radioactivity [1] | Relative Distribution (%) of radioactivity in extracted fecal homogenate ([1]; 24.2 h) | Relative Distribution (%) of radioactivity in extracted fecal homogenate ([1]; 24.6 h) | Relative Distribution (%) of radioactivity in extracted fecal homogenate ([1]; 25.2 h) | Relative Distribution (%) of radioactivity in extracted fecal homogenate ([1]; 29.8 h) | Relative Distribution (%) of radioactivity in extracted fecal homogenate ([1]; 30 h) | Relative Distribution (%) of radioactivity in extracted fecal homogenate ([1]; 32 h) | Relative Distribution (%) of radioactivity in extracted fecal homogenate ([1]; 34.2 h) | Relative Distribution (%) of radioactivity in extracted fecal homogenate ([1]; 41.8 h) | Species and matrix in which identified ([2]; in vivo, iv) | Species in which detected [3] | percent of the radioactivity in serum ([4]; male, human) | SMILES | Estimated Concentrations in fecal homogenate ([1]; 24.2 h) | Estimated Concentrations in fecal homogenate ([1]; 24.6 h) | Estimated Concentrations in fecal homogenate ([1]; 25.2 h) | Estimated Concentrations in fecal homogenate ([1]; 29.8 h) | Estimated Concentrations in fecal homogenate ([1]; 30 h) | Estimated Concentrations in fecal homogenate ([1]; 32 h) | Estimated Concentrations in fecal homogenate ([1]; 34.2 h) | Estimated Concentrations in fecal homogenate ([1]; 41.8 h) | other results
1 | 10-26% | 23.5% | 9.8% | 10.4% | 21.6% | 13.3% | 10.4% | 26.3% | 21.3% | R-S, M-S, M-U | – | – | CN(C)c1cc(NC(=O)CNC(C)(C)C)c(O)c2c1C[C@H]1C[C@H]3C(N(C)C)C(O[C@@H]4O[C@H](C(=O)O)[C@@H](O)[C@H](O)[C@H]4O)=C(C(N)=O)C(=O)[C@@]3(O)C(O)=C1C2=O (stereo in doubt) [Metabolite M7, tigecycline glucuronide] | 0.51 mg-Tigecycline Equivalents/Collection | 0.40 mg-Tigecycline Equivalents/Collection | 1.1 mg-Tigecycline Equivalents/Collection | 2.6 mg-Tigecycline Equivalents/Collection | 1.2 mg-Tigecycline Equivalents/Collection | 0.49 mg-Tigecycline Equivalents/Collection | 1.1 mg-Tigecycline Equivalents/Collection | 1.8 mg-Tigecycline Equivalents/Collection | –
2 | 4-14% | 13.9% | 6.2% | 7.5% | 4.1% | 5.9% | 4.2% | 3.9% | 6.7% | – | R, D, H | 10-20% | CC(C)(C)NCC(=O)O [Metabolite M3a, t-butylaminoacetic acid] | (0.30) mg-Tigecycline Equivalents/Collection | (0.25) mg-Tigecycline Equivalents/Collection | (0.81) mg-Tigecycline Equivalents/Collection | (0.49) mg-Tigecycline Equivalents/Collection | (0.55) mg-Tigecycline Equivalents/Collection | (0.20) mg-Tigecycline Equivalents/Collection | (0.17) mg-Tigecycline Equivalents/Collection | (0.56) mg-Tigecycline Equivalents/Collection | –
3 | up to 9% | 5.8% | – | 4.1% | 6.8% | 5.6% | 3.0% | 7.5% | 8.9% | R-S, M-S, M-U | – | less than 4% | CN(C)c1cc(NC(=O)CNC(C)(C)C)c(O)c2c1C[C@H]1C[C@H]3[C@@H](N(C)C)C(O[C@@H]4O[C@H](C(=O)O)[C@@H](O)[C@H](O)[C@H]4O)=C(C(N)=O)C(=O)[C@@]3(O)C(O)=C1C2=O [Metabolite M6, epimer of tigecycline glucuronide] | 0.13 mg-Tigecycline Equivalents/Collection | – | 0.44 mg-Tigecycline Equivalents/Collection | 0.82 mg-Tigecycline Equivalents/Collection | 0.52 mg-Tigecycline Equivalents/Collection | 0.14 mg-Tigecycline Equivalents/Collection | 0.32 mg-Tigecycline Equivalents/Collection | 0.75 mg-Tigecycline Equivalents/Collection | detection in serum samples [4]: approximately half the serum samples
4 | 28-51% | 44.9% | 47.7% | 39.9% | 39.1% | 48.3% | 50.7% | 32.8% | 28.1% | – | R, D, H | – | CN(C)c1cc(NC(=O)CNC(C)(C)C)c(O)c2c1C[C@H]1C[C@H]3[C@H](N(C)C)C(O)=C(C(N)=O)C(=O)[C@@]3(O)C(O)=C1C2=O [Tigecycline] | 0.97 mg-Tigecycline Equivalents/Collection | 2.0 mg-Tigecycline Equivalents/Collection | 4.3 mg-Tigecycline Equivalents/Collection | 4.7 mg-Tigecycline Equivalents/Collection | 4.5 mg-Tigecycline Equivalents/Collection | 2.4 mg-Tigecycline Equivalents/Collection | 1.4 mg-Tigecycline Equivalents/Collection | 2.4 mg-Tigecycline Equivalents/Collection | percent of fecal radioactivity after correcting for the epimer formed during the extraction process [1]: 39-66%; percent of serum radioactivity after correcting for the epimer formed during the extraction ([4]; male, human): 59-80%; Species and matrix in which identified ([2]; single IV tigecycline dose, LC/MS): R-S, M-S, M-U
